Converted amounts (≈) assume the structure as drawn.

The source of these data is ChEMBL document CHEMBL5528049, “Discovery of (4-Pyrazolyl)-2-aminopyrimidines as Potent and Selective Inhibitors of Cyclin-Dependent Kinase 2” (J Med Chem, 2024).

Data set [1] is described as follows: Protein binding in human plasma assessed as free fraction incubated for 2 hrs by LC-MS/MS analysis. The format is ADME, cell-free.
The target in data set [2] is CDK6/cyclin D3 (Homo sapiens, UniProt Q00534). In words: Inhibition of N-terminal GST-tagged human CDK6 (1 to 326 residues)/N-terminal 6-His fused human Cyclin D3 (1 to 292 residues) expressed in Sf9 insect cells incubated for 60 mins by HTRF assay.
The target of data set [3] is Cyclin-dependent kinase 4/cyclin D1 (Homo sapiens, UniProt P11802). In words: Inhibition of N-terminal GST-tagged human CDK4 (4 to 303 residues)/N-terminal GST-tagged human Cyclin D1 (4 to 295 residues) expressed in Sf9 insect cells incubated for 60 mins in presence of ATP by HTRF assay.
For data set [4], the species on record is Homo sapiens. Briefly: Selectivity index, ratio of IC50 for inhibition of C-terminal 6-His tagged recombinant full-length human CDK7/recombinant full-length human Cyclin H/N-terminal GST-tagged recombinant full-length human MAT1 expressed in baculovirus infected Sf21 insect cells to IC50 for inhibition of N-terminal ….
Data set [5] concerns the target Cyclin-dependent kinase 1/cyclin B1 (Homo sapiens, UniProt P06493). Briefly: Inhibition of N-terminal GST-tagged full length human CDK1 (1 to 297 residues)/human Cyclin B1 (1 to 433 residues) expressed in baculovirus infected Sf21 cells incubated for 60 mins in presence of ATP by HTRF assay.
Data set [6] has as its target CDK7/Cyclin H/MNAT1 (Homo sapiens, UniProt P50613). Briefly: Inhibition of C-terminal 6-His tagged recombinant full-length human CDK7/recombinant full-length human Cyclin H/N-terminal GST-tagged recombinant full-length human MAT1 expressed in baculovirus infected Sf21 insect cells incubated for 60 mins in presence of ATP by HTRF assay.
In data set [7] the target is T1, Cyclin-dependent kinase 2 (Homo sapiens, UniProt P24941). Briefly: Inhibition of CDK2 in CCNE1-amplified human COV318 cells assessed as reduction in retinoblastoma protein phosphorylation at S780 residue incubated overnight by HTRF microplate reader. The format is cell-based.
For data set [8], the target named is T1, Cyclin-dependent kinase 2. In words: Inhibition of CDK2 in human whole blood spiked with CCNE1-amplified human COV318 cells assessed as reduction in retinoblastoma protein phosphorylation at S780 residue incubated overnight by HTRF microplate reader. The class given is cell-based.
The species named for data set [9] is Homo sapiens. In words: Selectivity index, ratio of IC50 for inhibition of N-terminal GST-tagged human CDK4 (4 to 303 residues)/N-terminal GST-tagged human Cyclin D1 (4 to 295 residues) expressed in Sf9 insect cells to IC50 for inhibition of N-terminal GST-tagged full-length human CDK2(1 to 298 residues) /FLAG-tagged human Cyclin E1 (1 to 410 residues) expressed in baculovirus-infected Sf21 cells.

Data set [10] has as its target CDK9/cyclin T1 (Homo sapiens, UniProt P50750). In words: Inhibition of N-terminal GST-tagged full length human CDK9 (1 to 372 residues)/His-tagged human Cyclin T1 (1 to 726 residues) expressed in baculovirus infected Sf21 insect cells incubated for 60 mins by HTRF assay.
For data set [11], the species on record is Homo sapiens. In words: Selectivity index, ratio of IC50 for inhibition of N-terminal GST-tagged human CDK6 (1 to 326 residues)/N-terminal 6-His fused human Cyclin D3 (1 to 292 residues) expressed in Sf9 insect cells to IC50 for inhibition of N-terminal GST-tagged full-length human CDK2(1 to 298 residues) /FLAG-tagged human Cyclin E1 (1 to 410 residues) expressed in baculovirus-infected Sf21 cells.

In data set [12] the target is Cyclin-dependent kinase 2/cyclin E1 (Homo sapiens, UniProt P24941). In words: Inhibition of N-terminal GST-tagged full-length human CDK2(1 to 298 residues) /FLAG-tagged human Cyclin E1 (1 to 410 residues) expressed in baculovirus-infected Sf21 cells incubated for 60 mins in presence of ATP by HTRF assay.
A short description of data set [13]: Intrinsic clearance in human liver microsomes at 1 uM measured upto 30 mins by LC/MS analysis. The class given is ADME, Microsome. The note with it: read-out: CLH (converted).
A short description of data set [14]: Apparent permeability from apical to basolateral side in human Caco-2 cells at 50 uM incubated for 120 mins by LCMS analysis.
For data set [15], the species on record is Homo sapiens. Briefly: Selectivity index, ratio of IC50 for inhibition of N-terminal GST-tagged full length human CDK9 (1 to 372 residues)/His-tagged human Cyclin T1 (1 to 726 residues) expressed in baculovirus infected Sf21 insect cells to IC50 for inhibition of N-terminal GST-tagged full-length human CDK2(1 to 298 residues) /FLAG-tagged human Cyclin E1 (1 to 410 residues) expressed in baculovirus-infected Sf21 cells.

Data set [16] can be described thus: Solubility of compound in SGF by HPLC analysis.
The species entered for data set [17] is Homo sapiens. Briefly: Selectivity index, ratio of IC50 for inhibition of N-terminal GST-tagged full length human CDK1 (1 to 297 residues)/human Cyclin B1 (1 to 433 residues) expressed in baculovirus infected Sf21 cells to IC50 for inhibition of N-terminal GST-tagged full-length human CDK2(1 to 298 residues) /FLAG-tagged human Cyclin E1 (1 to 410 residues) expressed in baculovirus-infected Sf21 cells.

Take `CNCc1ccc(-n2cc(-c3nc(NC4CCN(S(C)(=O)=O)CC4)ncc3C(F)(F)F)cn2)c(Cl)c1`: in data set [1], the free fraction (fraction unbound) at 2 h was found to be 0.078. In addition, the IC50 is 58 nM in data set [2]; 11 nM in data set [3]; 43 nM in data set [5]; 33 nM in [6]; 25 nM in [7]; 263 nM in data set [8]. For the same compound, the IC50 in data set [10] turned out to be 3130 nM; in data set [12] it was 0.53 nM. Further, the Ratio IC50 in data set [4] stood at 62; in data set [9], 21; in data set [11], 109; in [15], 5900; in [17] it was 81. In [13], the CLint scaled at 1 µM is 11.7 mL/min/kg. Further, the Papp A→B at 2 h, 50 µM in data set [14] is 3.3 ×10⁻⁶ cm/s. Further, in [16], the solubility came to 94 µg/mL (≈ 173 µM).
